Data as given in US5008246A, “Novel peptides suppressing the function of the immune system, pharmaceutical compositions containing them and process for preparing same” (Richter Gedeon Vegyeszeti Gyar R. T., priority 1988, dated 1991).
Where a SMILES comes first, the peptide text is derived from it. [ ]: non-standard residue; d: D form.

Key:
[1] = test system: contact dermatitis; assay: Inhibition of the contact dermatitis (oxazolone, method of Evans et al.); format: in vivo, male BALB/c (LATI) mice; conditions: oxazolone-sensitized mice, 1.0 mg/kg i.p.; ear weight difference after 24 hours vs physiological saline control
Protocol: These investigations were carried out on male BALB/c (LATI) mice with 20 to 22 g body-weight by using the method of Evans et al. [Br. J. Pharmacol. 43, 403 (1971)]. The abdominal side of the animals were depilated, then the naked abdominal skin of each animal was sensitized by 0.1 ml of the oxazolone solution of 2% in sunflower oil. After 1 week, the mice were i.p. treated with an 1.0 mg/kg dose of the test substance (dissolved in physiological saline solution), then the right ear of the animals was directly treated with 10 μl of an acetone solution containing 2% oxazolone while their left ear was treated with 10 μl of acetone. After 24 hours, their ears were cut off and weighed. The difference between the weight of treated and untreated ears of the animals was compared with the difference observed at the animals treated with the test substance and treated only with physiological saline solution, respectively. The difference in the ear weight was considered to be proportional to the extent of the contact dermatitis, while the value measured at the animals not treated with the test substance was taken as control, the dermatitis-diminishing effect of the test substances was obtained as expressed in percentage shown in Table 4.

[2] = test system: resting macrophages; assay: Effect on the phagocytating capacity of resting macrophages; format: in vivo, male NZB (OLAC-SzKB) mice; conditions: 1 mg/kg s.c. daily for 4 days; count of phagocytated opsonized yeast cells by peritoneal macrophages vs untreated animals
Protocol: These examinations were carried out on 6 months old male NZB (OLAC-SzKB) mice according to the method described in J. Immunopharmnacol. 4, 265 (1982-1983). The animals were treated daily with a 1 mg/kg subcutaneous (s.c.) dose of the test substances for 4 days. After bleeding the animals, their peritonea were washed with 8 ml of PBS buffer solution (pH 7.2) each containing 10 IU of heparin. The cell suspension washed out from the peritoneum was made free of the erythrocytes by shocking with distilled water, then washed 3 times with PBS buffer solution. The sedimentation between two washings was achieved by centrifuging at 1000 rpm for 5 minutes. Then, the concentration of each cell suspension was adjusted to 10^6 cell/ml and the suspension was settled for 30 minutes in a Boyden-chamber at 37° C. in an atmosphere containing 5% of carbon dioxide. Over the macrophages adhered to the glass wall, opsonized yeast was layered. After removing the non-phagocytated particles, those incorporated by the macrophages were counted in each cell. In Table 3, the percentage of decrease in the count of the phagocytated yeast cells is given in relation to the macrophages isolated from the untreated animals as control.

## N=C(N)NCCC[C@H](N)C(=O)NCCCC[C@H](N)C(=O)N[C@@H](CC(=O)O)C(=O)O [Compound 12, Lys(Arg)--Asp] (H-Lys(Arg)-Asp-OH)
[1]
  Inhibition of the contact dermatitis %: -16%
[2]
  Effect on the phagocytating capacity of resting macrophages %: -42%

## N=C(N)NCCC[C@H](N)C(=O)NCCCC[C@H](N)C(=O)N[C@H](CC(=O)O)C(=O)O [Compound 13, Lys(Arg)--D--Asp] (H-Lys(Arg)-[dD]-OH)
[2]
  Effect on the phagocytating capacity of resting macrophages %: -50%
